Laboratory results taken from patent publication US11254663B2 (BRISTOL-MYERS SQUIBB COMPANY, priority 2019, dated 2022).

The compounds below were run against FXR (Homo sapiens (Human), UniProt Q96RI1) (assay: FXR EC50 (FXR agonist potency reported with each Example)).
Chain of FXR (Q96RI1 262-486): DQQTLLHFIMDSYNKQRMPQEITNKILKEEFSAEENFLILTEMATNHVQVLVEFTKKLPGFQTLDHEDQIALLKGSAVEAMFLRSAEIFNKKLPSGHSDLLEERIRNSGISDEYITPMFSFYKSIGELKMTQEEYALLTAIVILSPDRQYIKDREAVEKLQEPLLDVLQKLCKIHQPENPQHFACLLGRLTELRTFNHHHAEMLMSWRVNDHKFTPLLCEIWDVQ
Format: cell-based
`O=C(N(CC12CCC(c3noc(C4CC4(F)F)n3)(CC1)CC2)c1cccc(-c2nc(C3CC3)no2)c1)C12CC(F)(C1)C2` (stereo not drawn) [Example 123, N-(3-(3-cyclopropyl-1,2,4-oxadiazol-5-yl)phenyl)-N-((4-(5-(2,2-difluorocyclopropyl)-1,2,4-oxadiazol-3-yl)bicyclo[2.2.2]octan-1-yl)methyl)-3-fluorobicyclo[1.1.1]pentane-1-carboxamide] showed an EC50 of 0.073 µM. `CCCc1ncc(-c2cccc(N(CC34CCC(c5nc(C6CC6)no5)(CC3)CC4)C(=O)C34CC(F)(C3)C4)c2)o1` [Example 26, N-((4-(3-cyclopropyl-1,2,4-oxadiazol-5-yl)bicyclo[2.2.2]octan-1-yl)methyl)-3-fluoro-N-(3-(2-propyloxazol-5-yl)phenyl)bicyclo[1.1.1]pentane-1-carboxamide] was tested, and the EC50 was 0.072 µM. `CC(C)(C)c1nc(C23CCC(CN(C(=O)C45CC(F)(C4)C5)c4cccc(-c5nc(C6CC6)no5)c4)(CC2)CC3)no1` [Example 119, N-((4-(5-(tert-butyl)-1,2,4-oxadiazol-3-yl)bicyclo[2.2.2]octan-1-yl)methyl)-N-(3-(3-cyclopropyl-1,2,4-oxadiazol-5-yl)phenyl)-3-fluorobicyclo[1.1.1]pentane-1-carboxamide] showed an EC50 of 0.015 µM. `CC(C)(C)c1noc(C23CCC(CN(C(=O)C45CC(F)(C4)C5)c4cccc(-c5noc(C6CC6)n5)c4)(CC2)CC3)n1` [Example 171, N-((4-(3-(tert-butyl)-1,2,4-oxadiazol-5-yl)bicyclo[2.2.2]octan-1-yl)methyl)-N-(3-(5-cyclopropyl-1,2,4-oxadiazol-3-yl)phenyl)-3-fluorobicyclo[1.1.1]pentane-1-carboxamide] gave an EC50 of 0.0376 µM. For `CC(C)c1nc(-c2cccc(N(CC34CCC(c5ccc(C(F)(F)F)cn5)(CC3)CC4)C(=O)C34CC(F)(C3)C4)c2)no1` [Example 187, 3-fluoro-N-(3-(5-isopropyl-1,2,4-oxadiazol-3-yl)phenyl)-N-((4-(5-(trifluoromethyl)pyridin-2-yl)bicyclo[2.2.2]octan-1-yl)methyl)bicyclo[1.1.1]pentane-1-carboxamide], the EC50 was 0.605 µM. `N#CC1(c2ccc(C34CCC(CN(C(=O)C5CC(C(F)F)C5)c5cccc(-c6nnc(C7CC7)o6)c5)(CC3)CO4)cc2)CC1` (stereo not drawn) [Example 144, N-((1-(4-(1-Cyanocyclopropyl)phenyl)-2-oxabicyclo[2.2.2]octan-4-yl)methyl)-N-(3-(5-cyclopropyl-1,3,4-oxadiazol-2-yl)phenyl)-3-(difluoromethyl)cyclobutane-1-carboxamide] showed an EC50 of 2.16 µM. `O=C(C1CC(C(F)F)C1)N(CC12CCC(c3nc(C4CC4)no3)(CC1)CC2)c1cccc(-c2cnc(C3CC3)o2)c1` (stereo not drawn) [Example 24, N-((4-(3-cyclopropyl-1,2,4-oxadiazol-5-yl)bicyclo[2.2.2]octan-1-yl)methyl)-N-(3-(2-cyclopropyloxazol-5-yl)phenyl)-3-(difluoromethyl)cyclobutane-1-carboxamide] showed an EC50 of 0.281 µM. For `CC1(c2nc(C34CCC(CN(C(=O)C56CC(F)(C5)C6)c5cccc(-c6nnc(C7CC7)o6)c5)(CC3)CC4)no2)CC1` [Example 154, N-(3-(5-cyclopropyl-1,3,4-oxadiazol-2-yl)phenyl)-3-fluoro-N-((4-(5-(1-methylcyclopropyl)-1,2,4-oxadiazol-3-yl)bicyclo[2.2.2]octan-1-yl)methyl) bicyclo[1.1.1]pentane-1-carboxamide], the EC50 was 0.027 µM. Compound `CC(C)c1noc(C23CCC(CN(C(=O)C45CC(F)(C4)C5)c4cccc(-c5nc(C6CC6)no5)c4)(CC2)CC3)n1` [Example 89, N-(3-(3-cyclopropyl-1,2,4-oxadiazol-5-yl)phenyl)-3-fluoro-N-((4-(3-isopropyl-1,2,4-oxadiazol-5-yl)bicyclo[2.2.2]octan-1-yl)methyl)bicyclo[1.1.1]pentane-1-carboxamide] has an EC50 of 0.047 µM. `Cc1noc(-c2cccc(N(CC34CCC(c5ccc(C6CC6)cc5)(CC3)CC4)C(=O)C(C)C)c2)n1` [Example 1, N-((4-(4-cyclopropylphenyl)bicyclo[2.2.2]octan-1-yl)methyl)-N-(3-(3-methyl-1,2,4-oxadiazol-5-yl)phenyl)isobutyramide] showed an EC50 of 1.83 µM. With `CC(C)(C)c1noc(C23CCC(CN(C(=O)C45CC(F)(C4)C5)c4cccc(-c5nnc(C6CC6)o5)c4)(CC2)CC3)n1` [Example 153, N-((4-(3-(tert-butyl)-1,2,4-oxadiazol-5-yl)bicyclo[2.2.2]octan-1-yl)methyl)-N-(3-(5-cyclopropyl-1,3,4-oxadiazol-2-yl)phenyl)-3-fluorobicyclo[1.1.1]pentane-1-carboxamide] the EC50 was 0.073 µM. Compound `CC(N(C(=O)C12CC(F)(C1)C2)c1cccc(-c2nc(C3CC3)no2)c1)C12CCC(c3nc(C4CC4)no3)(CC1)CC2` (single isomer, unassigned) [Example 218, N-(1-(4-(3-cyclopropyl-1,2,4-oxadiazol-5-yl)bicyclo[2.2.2]octan-1-yl)ethyl)-N-(3-(3-cyclopropyl-1,2,4-oxadiazol-5-yl)phenyl)-3-fluorobicyclo[1.1.1]pentane-1-carboxamide] has an EC50 of 1.12 µM. With `O=C(C1CCC(F)(F)C1)N(CC12CCC(c3nc(C4CC4)no3)(CC1)OC2)c1cccc(-c2cc(C3CC3)on2)c1` (stereo not drawn) [Example 202, N-((1-(3-cyclopropyl-1,2,4-oxadiazol-5-yl)-2-oxabicyclo[2.2.2]octan-4-yl)methyl)-N-(3-(5-cyclopropylisoxazol-3-yl)phenyl)-3,3-difluorocyclopentane-1-carboxamide] the EC50 was 0.299 µM. Work on `O=C(C1CCC(F)(F)C1)N(CC12CCC(c3nc(C4CC4)no3)(CC1)CC2)c1cccc(-c2nc(CC3CC3)no2)c1` (stereo not drawn) [Example 67, N-((4-(3-cyclopropyl-1,2,4-oxadiazol-5-yl)bicyclo[2.2.2]octan-1-yl)methyl)-N-(3-(3-(cyclopropylmethyl)-1,2,4-oxadiazol-5-yl)phenyl)-3,3-difluorocyclopentane-1-carboxamide] yielded an EC50 of 0.202 µM. Compound `O=C(N(CC12CCC(c3nc(C4CC4)no3)(CC1)CC2)c1cccc(-c2cnn(C3COC3)c2)c1)C12CC(F)(C1)C2` [Example 150, N-((4-(3-cyclopropyl-1,2,4-oxadiazol-5-yl)bicyclo[2.2.2]octan-1-yl)methyl)-3-fluoro-N-(3-(1-(oxetan-3-yl)-1H-pyrazol-4-yl)phenyl)bicyclo[1.1.1]pentane-1-carboxamide] has an EC50 of 0.087 µM. For `O=C(N(CC12CCC(c3noc(C45CC(F)(C4)C5)n3)(CC1)CC2)c1cccc(-c2nc(C3CC3)no2)c1)C12CC(F)(C1)C2` [Example 114, N-(3-(3-cyclopropyl-1,2,4-oxadiazol-5-yl)phenyl)-3-fluoro-N-((4-(5-(3-fluorobicyclo[1.1.1]pentan-1-yl)-1,2,4-oxadiazol-3-yl)bicyclo[2.2.2]octan-1-yl)methyl)bicyclo[1.1.1]pentane-1-carboxamide], the EC50 was 0.177 µM. `Cn1nc(C23CCC(CN(C(=O)C4CC(F)(F)C4)c4cccc(-c5nc(C6CC6)no5)c4)(CC2)CC3)cc1C1CC1` [Example 125, N-(3-(3-cyclopropyl-1,2,4-oxadiazol-5-yl)phenyl)-N-((4-(5-cyclopropyl-1-methyl-1H-pyrazol-3-yl)bicyclo[2.2.2]octan-1-yl)methyl)-3,3-difluorocyclobutane-1-carboxamide] showed an EC50 of 0.48 µM. `Cn1nc(-c2cccc(N(CC34CCC(c5nc(C6CC6)no5)(CC3)CC4)C(=O)C3CC(F)(F)C3)c2)cc1C1CC1` [Example 76, N-((4-(3-cyclopropyl-1,2,4-oxadiazol-5-yl)bicyclo[2.2.2]octan-1-yl)methyl)-N-(3-(5-cyclopropyl-1-methyl-1H-pyrazol-3-yl)phenyl)-3,3-difluorocyclobutane-1-carboxamide] gave an EC50 of 0.61 µM. `CCn1cc(-c2cccc(N(CC34CCC(c5nc(C6CC6)no5)(CC3)CC4)C(=O)C34CC(F)(C3)C4)c2)oc1=O` [Example 80, N-((4-(3-cyclopropyl-1,2,4-oxadiazol-5-yl)bicyclo[2.2.2]octan-1-yl)methyl)-N-(3-(3-ethyl-2-oxo-2,3-dihydrooxazol-5-yl)phenyl)-3-fluorobicyclo[1.1.1]pentane-1-carboxamide] was tested, and the EC50 was 0.265 µM. For `O=C(C1CC(C(F)F)C1)N(CC12CCC(c3nc(C4CC4)no3)(CC1)OC2)c1cccc(-c2nc(C3CC3)no2)c1` (stereo not drawn) [Example 198, N-((1-(3-cyclopropyl-1,2,4-oxadiazol-5-yl)-2-oxabicyclo[2.2.2]octan-4-yl)methyl)-N-(3-(3-cyclopropyl-1,2,4-oxadiazol-5-yl)phenyl)-3-(difluoromethyl)cyclobutane-1-carboxamide], the EC50 was 0.909 µM. With `Cc1cnc(C23CCC(CN(C(=O)C45CC(F)(C4)C5)c4cccc(-c5nc(C(F)F)co5)c4)(CC2)CC3)o1` [Example 45, N-(3-(4-(difluoromethyl)oxazol-2-yl)phenyl)-3-fluoro-N-((4-(5-methyloxazol-2-yl)bicyclo[2.2.2]octan-1-yl)methyl)bicyclo[1.1.1]pentane-1-carboxamide] the EC50 was 0.258 µM. Work on `N#CC1(c2ccc(C34CCC(CN(C(=O)C56CC(F)(C5)C6)c5cccc(-c6nc(C7CC7)no6)c5)(CC3)CO4)cc2)CC1` [Example 143, N-((1-(4-(1-cyanocyclopropyl)phenyl)-2-oxabicyclo[2.2.2]octan-4-yl)methyl)-N-(3-(3-cyclopropyl-1,2,4-oxadiazol-5-yl)phenyl)-3-fluorobicyclo[1.1.1]pentane-1-carboxamide] yielded an EC50 of 0.089 µM. `Cn1nc(-c2cccc(N(CC34CCC(c5nc(C6CC6)no5)(CC3)CC4)C(=O)C3CCC(F)(F)C3)c2)cc1C1CC1` (stereo not drawn) [Example 77, N-((4-(3-cyclopropyl-1,2,4-oxadiazol-5-yl)bicyclo[2.2.2]octan-1-yl)methyl)-N-(3-(5-cyclopropyl-1-methyl-1H-pyrazol-3-yl)phenyl)-3,3-difluorocyclopentane-1-carboxamide] was tested, and the EC50 was 0.429 µM. For `CCOc1nnc(-c2cccc(N(CC34CCC(c5nc(C6CC6)no5)(CC3)CC4)C(=O)C3CC(C(F)F)C3)c2)o1` (stereo not drawn) [Example 56, N-((4-(3-cyclopropyl-1,2,4-oxadiazol-5-yl)bicyclo[2.2.2]octan-1-yl)methyl)-3-(difluoromethyl)-N-(3-(5-ethoxy-1,3,4-oxadiazol-2-yl)phenyl)cyclobutane-1-carboxamide], the EC50 was 0.275 µM.
